Measured values from US20230312639A1, “GPER PROTEOLYTIC TARGETING CHIMERAS” (University of Iowa Research Foundation, priority 2020, published 2023).

Experiments:
GPER = GPER (Homo sapiens, UniProt Q99527); test: Immunostaining of endogenous receptors in MCF-7 cells; conditions: MCF-7, 1 hour
ERs (ERa and ERb) = test: Fluorescence polarization competitive binding with E2-FITC in cytosolic fractions from MCF-7 cells; set-up: species or system human
Method: ER binding was measured using cytosolic fractions prepared from MCF-7 cells by fluorescence polarization. MCF-7 (10^6 cells) were detached in EDTA, cell homogenates were prepared using a Dounce homogenizer and subcellular fractions were isolated by differential centrifugation as previously described (Filardo et al, 2002). The protein concentration of each fraction was determined by bichinchoninic acid (BCA) assay (Pierce ™ BCA protein assay kit, Thermo Fisher). For saturation binding assay of the probe, different concentrations of cytosolic fraction were diluted in assay buffer (10 mM Tris-HCl, pH 7.4; 50 mM KCl, 10% glycerol, 0.1 mM dithiothreitol (DTT), 1 ug/mL BGG, 10 nM protease inhibitor cocktail (Roche) to a final volume of 200 uL containing 10 nM Ez-FITC. The mixture was incubated at ambient temperature for 1 hour and interaction of the probe with cytosolic protein was determined by fluorescence polarization (FP). For competitive binding assay, an aliquot of cytosolic fraction and E2-FITC (10 nM final concentration) was mixed and incubated at 4° C. for 1 hour. Then different concentrations of drugs and controls were added to the mixture. The mixture was incubated for an additional hour and then subjected to FP. All samples were measured in triplicate. Negative controls (only cytosolic fraction or only E2-FITC) and positive control (E2-FITC and cytosolic fraction at 100% binding without treatment) were included. Relative binding affinities were expressed as the percentage of FP recorded from treated wells compared to the positive control. FP values in millipolarization units (mP) were measured at ex/em wavelength of 485 nm/530 nm respectively using the Spectra Max plus 384 Microplate Spectrophotometer (Molecular Devices, Sunnyvale, CA) in 96-well, black, flat-bottom microplates (Greiner Bio-One North America, Inc., Monroe, NC). Kd values of the probe were determined by nonlinear regression fitting of the saturation curves, while IC50 values of treatment were determined by nonlinear regression fitting of the competition curves.
In contrast to GPER, ERa and ERb are intracellular receptors that are concentrated in the cytoplasm and in the nucleus. […] A saturation analysis was performed using 10 nM E2-FITC and increasing concentrations of cytosolic protein (FIG. 25D).

HA-GPER = molecular target: T1, HA-GPER (Homo sapiens, UniProt Q99527); test: Immunofluorescence with HA antibody, stably transfected HEK293 cells; type: cell-based; conditions: 100 µM, 1 hour
T1 construct: expressed in transfected cells

ERα = molecular target: T2, ERα (Homo sapiens, UniProt P03372); test: Immunostaining of endogenous receptors in MCF-7 cells; conditions: MCF-7, 1 hour
T2 sequence (P03372 1-595): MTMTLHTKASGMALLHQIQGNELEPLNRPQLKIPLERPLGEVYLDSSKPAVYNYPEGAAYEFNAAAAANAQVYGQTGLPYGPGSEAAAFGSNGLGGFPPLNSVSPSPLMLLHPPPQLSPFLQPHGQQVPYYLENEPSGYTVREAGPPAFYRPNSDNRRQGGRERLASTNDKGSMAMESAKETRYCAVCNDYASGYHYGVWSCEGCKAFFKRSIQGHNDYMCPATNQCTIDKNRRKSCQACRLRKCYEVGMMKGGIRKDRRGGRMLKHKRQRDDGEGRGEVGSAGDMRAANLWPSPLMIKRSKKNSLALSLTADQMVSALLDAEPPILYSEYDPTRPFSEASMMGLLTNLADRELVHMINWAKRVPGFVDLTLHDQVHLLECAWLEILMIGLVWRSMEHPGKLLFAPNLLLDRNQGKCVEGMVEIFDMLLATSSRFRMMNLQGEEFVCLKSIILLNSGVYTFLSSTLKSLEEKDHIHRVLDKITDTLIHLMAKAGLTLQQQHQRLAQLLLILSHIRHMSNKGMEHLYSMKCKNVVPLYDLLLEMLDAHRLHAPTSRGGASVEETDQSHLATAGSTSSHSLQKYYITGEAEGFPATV

HCC 1806 and SKBR3 cells = test: Survivability of breast cancer cells (Example 1); conditions: HCC 1806 and SKBR3, 24 hours of treatment
HiBiT-GPER = HiBiT-GPER (Homo sapiens, UniProt Q99527); test: Nano-BiT binary luminescence complementation, transfected HEK-293 cells, total receptor; type: cell-based
Method: FIG. 26. […] HEK-293 cells (ERα^-, GPER^-) were transiently transfected with 50 ng HiBiT-GPER or HiBiT-ER plus pcDNA3.1(+) zeo carrier plasmid. […] (C) Histogram depicting total HiBiT-GPER and HiBiT-ER following a 1-hour treatment at […] drug or control. […] Results shown represent the mean ± S.E. of three independent experiments.
FIG. 28. […] Total receptor was then measured by binary luminescence complementation in detergent-permeabilized cells. […] Total receptor was then quantified by binary luminescence complementation. Representative luminescence data and mean values and SDs derived from three independent experiments are shown.
Transient transfections and binary Nano-Bit ™ luminescence assays. Total HiBiT-tagged GPER or ER estrogen receptors were detected in detergent-permeabilized cells by binary luminescence complementation with recombinant LgBit and substrate using the Nano-Glo HiBiT Extracellular Detection system kit (Promega Corporation, Madison, Wl). In brief, HEK293 cells (0.75 × 10^6) were seeded in 35 mm tissue culture dishes and 24 hours later were transiently transfected with 50 ng of HiBiT-GPER or HiBiT-ERa and 950 ng of pcDNA3.1(+) zeo carrier plasmid using Lipofectamine 2000 (Invitrogen, Carlsbad, CA). The next day transfected cells were harvested by trypsinization and seeded at a density of 10^4 cells/well in 96-well poly-L-lysine-coated Greiner white-bottomed microplates. On the following day, cell culture media was aspirated and replaced with 100 µL of serum-free PRF-DF12 containing E2-PROTAC, partial-PROTAC, or vehicle at various concentrations and for indicated time intervals at 37° C. […] Following treatment, total HiBiT-tagged receptor was measured in cells which were permeabilized in 0.05% Triton X-100 using HiBiT complementation reagent consisting of LgBiT protein and Nano-Gio® HiBiT substrate. Luminescence was measured using the Infinite 200 PRO multimode microplate reader from Tecan (Raleigh, NC) and reported as Relative Luminescent Units (RLU). All samples were measured in triplicate and expressed as the mean value plus or minus standard deviation.

Chain of HiBiT-GPER (Q99527 whole entry): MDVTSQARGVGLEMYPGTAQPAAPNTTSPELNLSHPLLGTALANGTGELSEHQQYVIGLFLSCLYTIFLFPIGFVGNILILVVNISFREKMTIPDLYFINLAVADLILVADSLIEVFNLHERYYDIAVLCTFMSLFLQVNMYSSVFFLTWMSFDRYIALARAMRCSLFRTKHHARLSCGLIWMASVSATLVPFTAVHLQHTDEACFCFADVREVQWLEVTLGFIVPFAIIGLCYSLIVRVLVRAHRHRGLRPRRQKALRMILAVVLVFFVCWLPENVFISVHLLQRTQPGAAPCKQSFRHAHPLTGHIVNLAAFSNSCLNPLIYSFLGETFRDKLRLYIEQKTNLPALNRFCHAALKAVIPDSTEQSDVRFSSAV
T1 sequence (Q99527 whole entry): as above
Chain of GPER (Q99527 whole entry): as above

Cc1ncsc1-c1ccc(CNC(=O)C2CC(O)CN2C(=O)C(NC(=O)COCCOCCOCCOCC(=O)OC2CCC3C4CCc5cc(O)ccc5C4CCC23C)C(C)(C)C)cc1 (stereo not shown) [UI-EP001]
intracellular GPER expression (GPER): Clear site-specific reduction | RBA%, ERs (ERs (ERa and ERb); IC50 of 17β-E2 divided by IC50 of test compound): 32% | IC50 (ERs (ERa and ERb); MCF-7 cytosolic fraction, 10 nM E2-FITC, mean ± SD of triplicates): 17.2 ± 8.2 nM | Kd (ERs (ERa and ERb); MCF-7 cytosolic fractions, E2-FITC, read-out: binding dissociation constant (Kd), ER): 17.2 nM | degradation of HA-GPER (HA-GPER): specific degradation of HA-GPER was measured | nuclear ERα expression (ERα): Clear site-specific reduction | survivability compared to partial PROTAC (HCC 1806 and SKBR3 cells): lower survivability | reduction in expression level of recombinant GPER (HiBiT-GPER; 100 µM, as early as 1 h): 50% | DC50 (HiBiT-GPER; 1 hour treatment, detergent-permeabilized cells, read-out: DC50 (concentration required for 50% protein degradation), GPER): 100000 nM | change of HiBiT-GPER (HiBiT-GPER; increasing doses, 1 hour, partial PROTAC 100 µM): dose-dependent decrease
